pKi: −log10 of the molar value.

The source of these data is BindingDB's records for doi:10.1021/jm970389+ (Abbott Laboratories, 1998).

Experiment [1] can be described thus: The compound was evaluated for its binding affinity against PAF receptor in rabbit platelet.
A short description of experiment [2]: Binding potency against Platelet activating factor (PAF) receptor using [3H]C18-PAF as radioligand on rabbit platelet membranes.

For orientation: pKi means the Ki on a negative log10 scale, so that one unit is a factor of ten. A high value points to a low Ki. Compound `CC(=O)OC[n+]1cccc([C@H]2SCc3c(C(=O)c4cn(C(=O)N(C)C)c5cc(-c6ccc(F)cc6)ccc45)ccn32)c1` [1-Acetoxymethyl-3-{(R)-7-[1-dimethylcarbamoyl-6-(4-fluoro-phenyl)-1H-indole-3-carbonyl]-1H-pyrrolo[1,2-c]thiazol-3-yl}-pyridinium; chloride] gave a pKi in experiment [1] of 8.42.

In turn, `COC(=O)c1cc(C#Cc2ccccc2)cc2c1c(C(=O)c1ccc(Cn3c(C)nc4cnccc43)cc1)cn2C(=O)N(C)C` [1-Dimethylcarbamoyl-3-[4-(2-methyl-imidazo[4,5-c]pyridin-1-ylmethyl)-benzoyl]-6-phenylethynyl-1H-indole-4-carboxylic acid methyl ester] gave a pKi in experiment [2] of 9.02.

On to `Cc1nc2ncccc2n1Cc1ccc(C(=O)c2cn(C(=O)N(C)C)c3cccc(Cl)c23)cc1` [4-Chloro-3-[4-(2-methyl-imidazo[4,5-b]pyridin-1-ylmethyl)-benzoyl]-indole-1-carboxylic acid dimethylamide], for which the pKi in experiment [2] was 9.05.
